Data as given in patent publication US11186592B2, “Thiazolopyridine derivatives as adenosine receptor antagonists” (MERCK PATENT GMBH, priority 2017, dated 2021).

Tests used:
[1] = Pharmacokinetic properties in mouse after single intravenous and oral administration; conditions: for half-life / Cmax / clearance / Vd: female, iv, 0.2 mg/kg; for clearance: CL; for clearance / Vd: iv administration; for Vd: Vss
Description: Female Wistar rats/mice (n=6) received either a single intravenous (bolus) injection or an oral administration (by gavage) of the tested compound.
The concentrations of the compounds in plasma, feces were quantified using an UPLC method with tandem mass spectrometric detection (LC-MS/MS) previously developed at the ‘Institute of Drug Metabolism and Pharmacokinetics’. […] The detection of the compounds was performed using multiple reaction monitoring in the positive ionization mode. Plasma samples were spiked with internal standard (20 μl) and the analyte was extracted from the matrix using tertiary-butyl methyl ether (tBME). The organic phase was evaporated to dryness under a stream of nitrogen. The residue was dissolved in acetonitrile/0.1% formic acid for LC-MS/MS analysis. Feces samples were homogenized with 4-times their volume of an ethanol/water mixture (4:1, v/v). Aliquots of the aqueous-ethanolic extracts were spiked with internal standard, diluted with acetonitrile/water (1:1, v/v) and directly injected into the LC-MS/MS system.
Pharmacokinetic parameters Cmax and tmax were taken from the observed data. […] AUC values were calculated by non-compartmental analysis using the linear up/log down method. Numerical data for mean plasma concentrations and derived pharmacokinetic parameters were rounded to 3 significant digits for presentation.

human A2B receptor = target: T1, human A2B receptor (Homo sapiens, UniProt P29275); test: cAMP (HTRF) functional assay, recombinant HEK293 cells expressing human A2B receptor, agonist NECA; type: cell-based
T1 construct: expressed in transfected cells; host or cells: HEK293
T1 sequence (P29275 1-332): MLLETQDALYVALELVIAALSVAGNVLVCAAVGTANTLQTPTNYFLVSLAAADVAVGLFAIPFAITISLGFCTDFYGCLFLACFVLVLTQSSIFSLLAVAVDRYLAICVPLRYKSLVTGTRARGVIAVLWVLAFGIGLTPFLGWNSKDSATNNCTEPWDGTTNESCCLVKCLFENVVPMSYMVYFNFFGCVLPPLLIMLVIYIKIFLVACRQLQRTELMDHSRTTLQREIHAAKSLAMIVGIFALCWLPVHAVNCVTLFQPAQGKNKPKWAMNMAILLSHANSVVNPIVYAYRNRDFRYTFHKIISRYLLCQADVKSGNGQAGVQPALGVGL
Method in brief: (§1)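 Cellular cAMP measured by HTRF after 30 min incubation of cells with forskolin, test compounds and agonist. Data normalized to inhibitor control and DMSO neutral control, then curve-fitted.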

human A1 receptor = target: T2, human A1 receptor (Homo sapiens, UniProt P30542); test: cAMP (HTRF) functional assay, recombinant CHO cells expressing human A1 receptor, forskolin + agonist CPA; type: cell-based
T2 construct: expressed in transfected cells; host or cells: CHO
T2 sequence (P30542 1-326): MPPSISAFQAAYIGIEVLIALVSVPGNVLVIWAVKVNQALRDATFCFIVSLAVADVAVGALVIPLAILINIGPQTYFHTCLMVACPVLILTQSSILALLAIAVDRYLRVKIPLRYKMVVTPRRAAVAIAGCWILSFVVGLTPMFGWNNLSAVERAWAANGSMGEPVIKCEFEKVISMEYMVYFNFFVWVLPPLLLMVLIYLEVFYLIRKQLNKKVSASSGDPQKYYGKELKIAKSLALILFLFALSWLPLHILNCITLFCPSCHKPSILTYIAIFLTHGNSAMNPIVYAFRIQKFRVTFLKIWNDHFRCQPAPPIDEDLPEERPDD
Method in brief: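 Recombinant CHO cells expressing A1 or A3 receptor (Gi-coupled) were stimulated with forskolin together with test compound and agonist (CPA for A1, IB-MECA for A3), incubated 30 min, then cellular cAMP was read by HTRF. Data were normalized to inhibitor control and DMSO neutral control, then curve-fitted.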

human A2A receptor = target: T3, human A2A receptor (Homo sapiens, UniProt P29274); test: cAMP (HTRF) functional assay, recombinant HEK293 cells expressing human A2A receptor, agonist NECA; type: cell-based
T3 construct: expressed in transfected cells; host or cells: HEK293
T3 sequence (P29274 whole entry): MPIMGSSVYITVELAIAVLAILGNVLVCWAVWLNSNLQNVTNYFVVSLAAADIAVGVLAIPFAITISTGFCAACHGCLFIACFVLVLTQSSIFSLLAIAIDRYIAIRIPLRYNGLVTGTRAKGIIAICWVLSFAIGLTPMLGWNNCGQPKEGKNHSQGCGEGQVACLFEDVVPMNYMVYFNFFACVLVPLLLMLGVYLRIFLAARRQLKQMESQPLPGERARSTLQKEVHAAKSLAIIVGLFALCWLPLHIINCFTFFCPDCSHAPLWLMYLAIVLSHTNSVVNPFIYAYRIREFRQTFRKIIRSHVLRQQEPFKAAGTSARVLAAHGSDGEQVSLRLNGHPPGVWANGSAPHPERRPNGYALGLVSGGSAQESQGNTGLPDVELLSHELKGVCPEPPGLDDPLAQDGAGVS
Method in brief: as §1

human A3 receptor = target: T4, human A3 receptor (Homo sapiens, UniProt P0DMS8); test: cAMP (HTRF) functional assay, recombinant CHO cells expressing human A3 receptor, forskolin + agonist IB-MECA; type: cell-based
T4 construct: expressed in transfected cells; host or cells: CHO
T4 sequence (P0DMS8 1-318): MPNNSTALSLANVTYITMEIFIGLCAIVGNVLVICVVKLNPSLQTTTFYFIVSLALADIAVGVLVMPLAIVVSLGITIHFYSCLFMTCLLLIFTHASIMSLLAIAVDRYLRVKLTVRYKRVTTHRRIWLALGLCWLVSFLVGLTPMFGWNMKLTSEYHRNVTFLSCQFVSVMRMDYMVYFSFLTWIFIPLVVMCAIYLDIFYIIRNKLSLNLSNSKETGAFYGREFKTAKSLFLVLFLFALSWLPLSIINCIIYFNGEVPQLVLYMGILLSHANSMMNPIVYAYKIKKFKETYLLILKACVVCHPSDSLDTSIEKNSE
Description: The functional activities of human A2A, A2B, A1 and A3 receptors were determined by quantification of cAMP, being the second messenger for adenosine receptors.
For human A1 and A3 receptors, recombinant CHO cells, expressing either A1 or A3-receptor, were used. As both receptors couple to Gi proteins, the assay protocol was adapted:
Cells were seeded into 384-well plates, forskolin, test compounds and agonists (CPA for A1- and IB-MECA for A3-receptor) were added. After 30 min incubation, HTRF reagents (cAMP dynamic 2, Cis Bio) were added and the cellular cAMP levels were determined using the ENVISION (Perkin Elmer) plate reader. Obtained raw data were normalized against the inhibitor control and the neural control (DMSO) and the normalized data were fitted using GeneData software.

| IC50 (human A2B receptor) | IC50 (human A1 receptor) | IC50 (human A2A receptor) | IC50 (human A3 receptor) | SMILES | Feces iv ([1]; % of dose in feces after iv, @0.2 (iv dose 0.2 mg/kg)) | half-life ([1]; in vivo) | Cmax ([1]; plasma) | clearance ([1]; plasma) | Vd ([1]; plasma) | Cmax ([1]; in vivo) |
| --- | --- | --- | --- | --- | --- | --- | --- | --- | --- | --- |
| – | – | – | – | COCCn1cc(C(=O)Nc2nc3c(OC)ccc(N4CCOCC4)c3s2)cn1 [Benzothiazole analogue to No. 4, reference compound] | 2.6@0.2% | 19.9 min | 940 ng/mL | 36.3 mL/min/kg | 0.946 L/kg | – |
| – | – | – | – | COc1ncc(N2CCOCC2)c2sc(NC(=O)N3CCC(C)(O)CC3)nc12 [compound 1, 4-Hydroxy-4-methyl-piperidine-1-carboxylic acid (4-methoxy-7-morpholin-4-yl-thiazolo[4,5-c]pyridin-2-yl)-amide] | – | 10.3 min | – | 114 mL/min/kg | 1.45 L/kg | 449 ng/mL |
| < 0.1 µM | > 1 µM | < 0.01 µM | > 1 µM | COc1ncc(-c2ccccc2)c2sc(NC(=O)N3CC[C@]4(CCCOC4)C3)nc12 [compound 205, (R)-7-Oxa-2-aza-spiro[4.5]decane-2-carboxylic acid (4-methoxy-7-phenyl-thiazolo[4,5-c]pyridin-2-yl)-amide] | – | – | – | – | – | – |
| < 0.1 µM | < 1 µM | < 0.01 µM | > 1 µM | COc1ncc(-c2ccccc2)c2sc(NC(=O)N3CC[C@]4(CCOC4)C3)nc12 [compound 207, (S)-2-Oxa-7-aza-spiro[4.4]nonane-7-carboxylic acid (4-methoxy-7-phenyl-thiazolo[4,5-c]pyridin-2-yl)-amide] | – | – | – | – | – | – |
| < 0.1 µM | > 1 µM | < 0.01 µM | > 1 µM | COc1ncc(-c2ccccc2)c2sc(NC(=O)N3CC[C@@]4(CCOC4)C3)nc12 [compound 208, (R)-2-Oxa-7-aza-spiro[4.4]nonane-7-carboxylic acid (4-methoxy-7-phenyl-thiazolo[4,5-c]pyridin-2-yl)-amide] | – | – | – | – | – | – |
| < 0.1 µM | > 1 µM | < 0.01 µM | > 1 µM | COc1ncc(-c2cccc(F)c2F)c2sc(NC(=O)N3CCC4(CCOCC4)C3)nc12 [compound 209, 8-Oxa-2-aza-spiro[4.5]decane-2-carboxylic acid [7-(2,3-difluoro-phenyl)-4-methoxy-thiazolo[4,5-c]pyridin-2-yl]-amide] | – | – | – | – | – | – |
| < 0.1 µM | > 1 µM | < 0.01 µM | > 1 µM | COc1ncc(-c2cc(F)ccc2F)c2sc(NC(=O)N3CCC4(CCOCC4)C3)nc12 [compound 210, 8-Oxa-2-aza-spiro[4.5]decane-2-carboxylic acid [7-(2,5-difluoro-phenyl)-4-methoxy-thiazolo[4,5-c]pyridin-2-yl]-amide] | – | – | – | – | – | – |
| < 0.1 µM | < 1 µM | < 0.01 µM | > 1 µM | COc1ncc(-c2ccccc2)c2sc(NC(=O)c3ccc(N4C(=O)CCC4=O)cc3)nc12 [compound 213, 4-(2,5-Dioxo-pyrrolidin-1-yl)-N-(4-methoxy-7-phenyl-thiazolo[4,5-c]pyridin-2-yl)-benzamide] | – | – | – | – | – | – |
| < 0.1 µM | > 1 µM | < 0.01 µM | > 1 µM | COc1nc(Cl)c(-c2ccccc2)c2sc(NC(=O)N3CCC4(CCOCC4)C3)nc12 [compound 220, 8-Oxa-2-aza-spiro[4.5]decane-2-carboxylic acid (6-chloro-4-methoxy-7-phenyl-thiazolo[4,5-c]pyridin-2-yl)-amide] | – | – | – | – | – | – |
| < 0.01 µM | < 1 µM | < 0.01 µM | < 1 µM | COCCOc1cccc(-c2cnc(OC)c3nc(NC(=O)c4cnn(CCOC)c4)sc23)c1 [compound 233, N-{4-methoxy-7-[3-(2-methoxyethoxy)phenylH]-[1,3]thiazolo[4,5-c]pyridin-2-yl}-1-(2-methoxyethyl)-1H-pyrazole-4-carboxamide] | – | – | – | – | – | – |
| < 0.01 µM | < 0.1 µM | < 0.01 µM | < 0.1 µM | COCCOc1cccc(-c2c(F)nc(OC)c3nc(NC(=O)N4CCC5(CCOCC5)C4)sc23)c1 [compound 234, N-{6-fluoro-4-methoxy-7-[3-(2-methoxyethoxy)phenyl]-[1,3]thiazolo[4,5-c]pyridin-2-yl}-8-oxa-2-azaspiro[4.5]decane-2-carboxamide] | – | – | – | – | – | – |
| < 0.01 µM | < 0.1 µM | < 0.01 µM | < 1 µM | COc1ncc(C2CCOCC2)c2sc(NC(=O)c3cnn(C)c3)nc12 [compound 235, N-[4-methoxy-7-(oxan-4-yl)-[1,3]thiazolo[4,5-c]pyridin-2-yl]-1-methyl-1H-pyrazole-4-carboxamide] | – | – | – | – | – | – |
| < 0.1 µM | > 1 µM | < 0.1 µM | > 1 µM | COc1ccccc1-c1cnc(OC)c2nc(NC(=O)N3CCC4(CCOCC4)C3)sc12 [compound 236, N-[4-methoxy-7-(2-methoxyphenyl)-[1,3]thiazolo[4,5-c]pyridin-2-yl]-8-oxa-2-azaspiro[4.5]decane-2-carboxamide] | – | – | – | – | – | – |
| < 0.01 µM | < 0.01 µM | < 0.01 µM | < 1 µM | COc1ncc(C2=CCOCC2)c2sc(NC(=O)c3cnn(C)c3)nc12 [compound 238, N-[7-(3,6-dihydro-2H-pyran-4-yl)-4-methoxy-[1,3]thiazolo[4,5-c]pyridin-2-yl]-1-methyl-1H-pyrazole-4-carboxamide] | – | – | – | – | – | – |
| > 1 µM | > 1 µM | < 0.1 µM | > 1 µM | COc1ccc(-c2cnc(OC)c3nc(NC(=O)N4CCC5(CCOCC5)C4)sc23)c(OC)n1 [compound 239, N-[7-(2,6-dimethoxypyridin-3-yl)-4-methoxy-[1,3]thiazolo[4,5-c]pyridin-2-yl]-8-oxa-2-azaspiro[4.5]decane-2-carboxamide] | – | – | – | – | – | – |
| < 0.01 µM | < 1 µM | < 0.01 µM | < 1 µM | COc1ncc(C2CCOCC2)c2sc(NC(=O)c3cnc(N)s3)nc12 [compound 241, 2-amino-N-[4-methoxy-7-(oxan-4-yl)-[1,3]thiazolo[4,5-c]pyridin-2-yl]-1,3-thiazole-5-carboxamide] | – | – | – | – | – | – |
